Laboratory results: ChEMBL document CHEMBL4219066, “Identification and Mitigation of Reactive Metabolites of 2-Aminoimidazole-Containing Microsomal Prostaglandin E Synthase-1 Inhibitors Terminated Due to Clinical Drug-Induced Liver Injury” (J Med Chem, 2018)

What was measured:
[1] = Drug metabolism in rat hepatocytes assessed as 2-amino-5-((R)-1-(carboxymethylamino)-3-((2-(2-chloro-5-(pivalamidomethyl)benzamido)-1H-imidazol-5-yl)disulfanyl)-1-oxopropan-2-ylamino)-5-oxopentanoic acid formation at 2 uM after 4 hrs by LC-MS/MS analysis; type: ADME, cell-based, Hepatocyte
[2] = Drug metabolism in rat hepatocytes assessed as 2-chloro-5-((3-hydroxy-2,2-dimethylpropanamido)methyl)-N-(1H-imidazol-2-yl)benzamide formation at 2 uM after 4 hrs by LC-MS/MS analysis; type: ADME, cell-based, Hepatocyte
[3] = Drug metabolism in dog hepatocytes assessed as 2-chloro-5-((3-hydroxy-2,2-dimethylpropanamido)methyl)-N-(1H-imidazol-2-yl)benzamide formation at 2 uM after 4 hrs by LC-MS/MS analysis; type: ADME, cell-based, Canis lupus familiaris, Hepatocyte
[4] = Drug metabolism in human hepatocytes assessed as 2-chloro-5-((3-hydroxy-2,2-dimethylpropanamido)methyl)-N-(1H-imidazol-2-yl)benzamide formation at 2 uM after 4 hrs by LC-MS/MS analysis; type: ADME, cell-based, Hepatocyte
[5] = Drug metabolism in rat hepatocytes assessed as 2-chloro-N-(4,5-dihydroxy-4,5-dihydro-1H-imidazol-2-yl)-5-(pivalamidomethyl)benzamide formation at 2 uM after 4 hrs by LC-MS/MS analysis; type: ADME, cell-based, Hepatocyte
[6] = Drug metabolism in dog hepatocytes assessed as 2-chloro-N-(4,5-dihydroxy-4,5-dihydro-1H-imidazol-2-yl)-5-(pivalamidomethyl)benzamide formation at 2 uM after 4 hrs by LC-MS/MS analysis; type: ADME, cell-based, Canis lupus familiaris, Hepatocyte
[7] = Drug metabolism in human hepatocytes assessed as 2-chloro-N-(4,5-dihydroxy-4,5-dihydro-1H-imidazol-2-yl)-5-(pivalamidomethyl)benzamide formation at 2 uM after 4 hrs by LC-MS/MS analysis; type: ADME, cell-based, Hepatocyte
[8] = Drug metabolism in rat hepatocytes assessed as 2-chloro-N-(4-hydroxy-1H-imidazol-2-yl)-5-(pivalamidomethyl)benzamide formation at 2 uM after 4 hrs by LC-MS/MS analysis; type: ADME, cell-based, Hepatocyte
[9] = Drug metabolism in dog hepatocytes assessed as 2-chloro-N-(4-hydroxy-1H-imidazol-2-yl)-5-(pivalamidomethyl)benzamide formation at 2 uM after 4 hrs by LC-MS/MS analysis; type: ADME, cell-based, Canis lupus familiaris, Hepatocyte
[10] = Drug metabolism in human hepatocytes assessed as 2-chloro-N-(4-hydroxy-1H-imidazol-2-yl)-5-(pivalamidomethyl)benzamide formation at 2 uM after 4 hrs by LC-MS/MS analysis; type: ADME, cell-based, Hepatocyte
[11] = Drug metabolism in dog hepatocytes assessed as N-carbamimidoyl-2-chloro-5-(pivalamidomethyl)benzamide formation at 2 uM after 4 hrs by LC-MS/MS analysis; type: ADME, cell-based, Canis lupus familiaris, Hepatocyte
[12] = Drug metabolism in Sprague-Dawley rat plasma assessed as 2-chloro-5-((3-hydroxy-2,2-dimethylpropanamido)methyl)-N-(1H-imidazol-2-yl)benzamide formation at 1000 mg/kg, po measured after 2 hrs post dose by LC/MS analysis; type: ADME, organism-based; details: in vivo
[13] = Drug metabolism in Beagle dog plasma assessed as 2-chloro-5-((3-hydroxy-2,2-dimethylpropanamido)methyl)-N-(1H-imidazol-2-yl)benzamide formation at 300 to 600 mg/kg, po measured after 2 hrs post dose by LC/MS analysis; type: ADME, organism-based, Canis lupus familiaris; details: in vivo
[14] = In vivo drug metabolism in human plasma assessed as 2-chloro-5-((3-hydroxy-2,2-dimethylpropanamido)methyl)-N-(1H-imidazol-2-yl)benzamide formation HPLC-MS analysis; type: ADME, organism-based
[15] = Drug metabolism in Sprague-Dawley rat plasma assessed as 2-chloro-N-(4,5-dihydroxy-4,5-dihydro-1H-imidazol-2-yl)-5-(pivalamidomethyl)benzamide formation at 1000 mg/kg, po measured after 2 hrs post dose by LC/MS analysis; type: ADME, organism-based; details: in vivo
[16] = Drug metabolism in Beagle dog plasma assessed as 2-chloro-N-(4,5-dihydroxy-4,5-dihydro-1H-imidazol-2-yl)-5-(pivalamidomethyl)benzamide formation at 300 to 600 mg/kg, po measured after 2 hrs post dose by LC/MS analysis; type: ADME, organism-based, Canis lupus familiaris; details: in vivo
[17] = Drug metabolism in Sprague-Dawley rat plasma assessed as 2-chloro-N-(4-hydroxy-1H-imidazol-2-yl)-5-(pivalamidomethyl)benzamide formation at 1000 mg/kg, po measured after 2 hrs post dose by LC/MS analysis; type: ADME, organism-based; details: in vivo
[18] = Drug metabolism in Beagle dog plasma assessed as 2-chloro-N-(4-hydroxy-1H-imidazol-2-yl)-5-(pivalamidomethyl)benzamide formation at 300 to 600 mg/kg, po measured after 2 hrs post dose by LC/MS analysis; type: ADME, organism-based, Canis lupus familiaris; details: in vivo
[19] = In vivo drug metabolism in human plasma assessed as 2-chloro-N-(4-hydroxy-1H-imidazol-2-yl)-5-(pivalamidomethyl)benzamide formation HPLC-MS analysis; type: ADME, organism-based
[20] = Drug metabolism in Sprague-Dawley rat plasma assessed as N-carbamimidoyl-2-chloro-5-(pivalamidomethyl)benzamide formation at 1000 mg/kg, po measured after 2 hrs post dose by LC/MS analysis; type: ADME, organism-based; details: in vivo
[21] = Drug metabolism in Beagle dog plasma assessed as N-carbamimidoyl-2-chloro-5-(pivalamidomethyl)benzamide formation at 300 to 600 mg/kg, po measured after 2 hrs post dose by LC/MS analysis; type: ADME, organism-based, Canis lupus familiaris; details: in vivo
[22] = In vivo drug metabolism in human plasma assessed as N-carbamimidoyl-2-chloro-5-(pivalamidomethyl)benzamide formation by HPLC-MS analysis; type: ADME, organism-based
[23] = Drug metabolism in Sprague-Dawley rat plasma assessed as 2-chloro-5-(pivalamidomethyl)benzoic acid formation at 1000 mg/kg, po measured after 2 hrs post dose by LC/MS analysis; type: ADME, organism-based; details: in vivo
[24] = Drug metabolism in Beagle dog plasma assessed as 2-chloro-5-(pivalamidomethyl)benzoic acid formation at 300 to 600 mg/kg, po measured after 2 hrs post dose by LC/MS analysis; type: ADME, organism-based, Canis lupus familiaris; details: in vivo
[25] = Drug metabolism in Sprague-Dawley rat plasma assessed as 5-(aminomethyl)-2-chloro-N-(1H-imidazol-2-yl)benzamide formation at 1000 mg/kg, po measured after 2 hrs post dose by LC/MS analysis; type: ADME, organism-based; details: in vivo
[26] = Drug metabolism in Beagle dog plasma assessed as 5-(aminomethyl)-2-chloro-N-(1H-imidazol-2-yl)benzamide formation at 300 to 600 mg/kg, po measured after 2 hrs post dose by LC/MS analysis; type: ADME, organism-based, Canis lupus familiaris; details: in vivo
[27] = In vivo drug metabolism in human urine assessed as 2-chloro-5-((3-hydroxy-2,2-dimethylpropanamido)methyl)-N-(1H-imidazol-2-yl)benzamide formation by HPLC-MS analysis; type: ADME, organism-based
[28] = In vivo drug metabolism in human urine assessed as 2-chloro-N-(4,5-dihydroxy-4,5-dihydro-1H-imidazol-2-yl)-5-(pivalamidomethyl)benzamide formation by HPLC-MS analysis; type: ADME, organism-based
[29] = In vivo drug metabolism in human urine assessed as 2-chloro-N-(4-hydroxy-1H-imidazol-2-yl)-5-(pivalamidomethyl)benzamide formation by HPLC-MS analysis; type: ADME, organism-based
[30] = In vivo drug metabolism in human urine assessed as N-carbamimidoyl-2-chloro-5-(pivalamidomethyl)benzamide formation by HPLC-MS analysis; type: ADME, organism-based
[31] = In vivo drug metabolism in human urine assessed as N-carbamimidoyl-2-chloro-5-((3-hydroxy-2,2-dimethylpropanamido)methyl)benzamide formation by HPLC-MS analysis; type: ADME, organism-based
[32] = In vivo drug metabolism in human urine assessed as (R)-2-amino-3-((2-(2-chloro-5-(pivalamidomethyl)benzamido)-1H-imidazol-5-yl)disulfanyl)propanoic acid formation by HPLC-MS analysis; type: ADME, organism-based
[33] = Drug metabolism in rat hepatocytes assessed as N-(6-oxa-2,4-diazabicyclo[3.1.0]hex-3-en-3-yl)-2-chloro-5-(pivalamidomethyl)benzamide formation at 2 uM after 4 hrs by LC-MS/MS analysis; type: ADME, cell-based, Hepatocyte
[34] = Drug metabolism in dog hepatocytes assessed as N-(6-oxa-2,4-diazabicyclo[3.1.0]hex-3-en-3-yl)-2-chloro-5-(pivalamidomethyl)benzamide formation at 2 uM after 4 hrs by LC-MS/MS analysis; type: ADME, cell-based, Canis lupus familiaris, Hepatocyte
[35] = Drug metabolism in human hepatocytes assessed as N-(6-oxa-2,4-diazabicyclo[3.1.0]hex-3-en-3-yl)-2-chloro-5-(pivalamidomethyl)benzamide formation at 2 uM after 4 hrs by LC-MS/MS analysis; type: ADME, cell-based, Hepatocyte
[36] = Drug metabolism in human liver microsomes assessed as N-(6-oxa-2,4-diazabicyclo[3.1.0]hex-3-en-3-yl)-2-chloro-5-(pivalamidomethyl)benzamide formation at 2 uM in presence of 1:1 ratio of unlabeled GSH and [glycine 13C2,15N]-labelled GSH after 0.5 hrs by HPLC-MS analysis; type: ADME, microsome
[37] = Drug metabolism in Sprague-Dawley rat plasma assessed as N-(6-oxa-2,4-diazabicyclo[3.1.0]hex-3-en-3-yl)-2-chloro-5-(pivalamidomethyl)benzamide formation at 1000 mg/kg, po measured after 2 hrs post dose by LC/MS analysis; type: ADME, organism-based; details: in vivo
[38] = Drug metabolism in Beagle dog plasma assessed as N-(6-oxa-2,4-diazabicyclo[3.1.0]hex-3-en-3-yl)-2-chloro-5-(pivalamidomethyl)benzamide formation at 300 to 600 mg/kg, po measured after 2 hrs post dose by LC/MS analysis; type: ADME, organism-based, Canis lupus familiaris; details: in vivo
[39] = In vivo drug metabolism in human plasma assessed as N-(6-oxa-2,4-diazabicyclo[3.1.0]hex-3-en-3-yl)-2-chloro-5-(pivalamidomethyl)benzamide formation HPLC-MS analysis; type: ADME, organism-based
[40] = In vivo drug metabolism in human urine assessed as N-(6-oxa-2,4-diazabicyclo[3.1.0]hex-3-en-3-yl)-2-chloro-5-(pivalamidomethyl)benzamide formation by HPLC-MS analysis; type: ADME, organism-based

Measured: Drug metabolism

CC(C)(C)C(=O)NCc1ccc(Cl)c(C(=O)Nc2ncc[nH]2)c1 [LY-3031207]
Metabolite_Detected: [1] | [2] | [3] | [4] | [5] | [6] | [7] | [8] | [9] | [10] | [11] | [12] | [13] | [14] | [15] | [16] | [17] | [18] | [19] | [20] | [21] | [22] | [23] | [24] | [25] | [26] | [27] | [28] | [29] | [30] | [31] | [32]
Metabolite_Notdetected: [33] | [34] | [35] | [36] | [37] | [38] | [39] | [40]
